Laboratory results reported in patent publication US20260285850A1, “SUBSTITUTED OXAZOLIDINONES AND IMIDAZOLINONES AS HERBICIDES” (FMC CORPORATION, priority 2023, published 2026).

Key:
Assay type in all cases: in vivo
[1] = system: sedge, umbrella (small-flower umbrella sedge, Cyperus difformis); test: Test B flooded paddy test, visual plant response rating 0-100; settings: 250 g ai/ha, Flood, applied to paddy water, evaluated after 13 days
Outline: (§1)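 In this flooded assay, 2-leaf seedlings received compound through the water layer, kept at 3 cm over the soil. Plants were held 13 days in a greenhouse and then visually compared with control pots.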

[2] = system: rice (Oryza sativa); test: as above; settings: 250 g ai/ha, Flood, applied to paddy water, evaluated after 13 days
Outline: as §1

[3] = system: ducksalad (Heteranthera limosa); test: as above; settings: 250 g ai/ha, Flood, applied to paddy water, evaluated after 13 days
Outline: as §1

[4] = system: barnyardgrass (Echinochloa crusgalli); test: as above; settings: 250 g ai/ha, Flood, applied to paddy water, evaluated after 13 days
Outline: as §1

[5] = system: ragweed (common ragweed, Ambrosia artemisiifolia); test: Test A preemergence soil spray, visual injury rating 0-100; settings: 10 days
Outline: (§2)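 Grow plants in loam soil blended with sand. Apply formulated compound (non-phytotoxic solvent, surfactant) as a directed soil spray before emergence, or to plants at the one- to two-leaf stage after emergence. Hold in greenhouse 10 days, then rate injury visually versus untreated controls on a 0-100 scale.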

[6] = system: soybean (Glycine max); test: as above; settings: 10 days
Outline: as §2

[7] = system: ryegrass, Italian (italian ryegrass, Lolium multiflorum); test: as above; settings: 10 days
Outline: as §2

[8] = system: palmer (palmer amaranth, palmer pigweed, Amaranthus palmeri); test: as above; settings: 10 days
Outline: as §2

[9] = system: kochia (Bassia scoparia); test: as above; settings: 10 days
Outline: as §2

[10] = system: green foxtail (Setaria viridis); test: as above; settings: 10 days
Outline: as §2

[11] = system: wheat (Triticum aestivum); test: as above; settings: 10 days
Outline: as §2

[12] = system: corn (Zea mays); test: as above; settings: 10 days
Outline: as §2

[13] = system: blackgrass (Alopecurus myosuroides); test: as above; settings: 10 days
Outline: as §2

[14] = system: oat, wild (wild oat, Avena fatua); test: as above; settings: 10 days
Outline: as §2

[15] = system: barnyardgrass (Echinochloa crus-galli); test: as above; settings: 10 days
Outline: as §2

[16] = system: ragweed (common ragweed, Ambrosia artemisiifolia); test: Test A postemergence application, visual injury rating 0-100
Outline: as §2

[17] = system: soybean (Glycine max); test: as above
Outline: as §2

[18] = system: ryegrass, Italian (italian ryegrass, Lolium multiflorum); test: as above
Outline: as §2

[19] = system: palmer (palmer amaranth, palmer pigweed, Amaranthus palmeri); test: as above
Outline: as §2

[20] = system: kochia (Bassia scoparia); test: as above
Outline: as §2

[21] = system: green foxtail (Setaria viridis); test: as above
Outline: as §2

[22] = system: wheat (Triticum aestivum); test: as above
Outline: as §2

[23] = system: corn (Zea mays); test: as above
Outline: as §2

[24] = system: blackgrass (Alopecurus myosuroides); test: as above
Outline: as §2

[25] = system: oat, wild (wild oat, Avena fatua); test: as above
Outline: as §2

[26] = system: galium (catchweed bedstraw, Galium aparine); test: as above
Outline: as §2

[27] = system: barnyardgrass (Echinochloa crus-galli); test: as above
Outline: as §2

[28] = system: horseweed (Erigeron canadensis); test: as above
Outline: as §2

[29] = 62 g ai/ha, 0 = no effect, 100 = complete control
[30] = 62 g ai/ha, postemergence, 10 days, 0 = no effect, 100 = complete control
[31] = Postemergence, 16 g ai/ha, greenhouse 10 days, 0 no effect, 100 complete control

CC1(C(=O)NC2CC=C(C(=O)NS(=O)(=O)c3ccccc3)C2)CN(c2cc(F)cc(F)c2)C(=O)O1 (racemic) [Compound 104]
Plant response rating, Sedge, Umbrella (0 to 100 scale, 0 is no effect and 100 is complete control) [1]: 0 | Plant response rating, Rice (0 to 100 scale, 0 is no effect and 100 is complete control) [2]: 0 | Plant response rating, Ducksalad (0 to 100 scale, 0 is no effect and 100 is complete control) [3]: 0 | Plant response rating, Barnyardgrass (0 to 100 scale, 0 is no effect and 100 is complete control) [4]: 0 | Ragweed plant response rating ([5]; 16 g ai/ha, 0 to 100 scale): 20 | Ragweed plant response rating (0-100) [5, 29]: 20 | Soybean plant response rating ([6]; 16 g ai/ha, 0 to 100 scale): 0 | Soybean plant response rating (0-100) [6, 29]: 0 | Ryegrass, Italian plant response rating ([7]; 16 g ai/ha, 0 to 100 scale): 0 | Ryegrass, Italian plant response rating (0-100) [7, 29]: 20 | Pigweed, Palmer plant response rating ([8]; 16 g ai/ha, 0 to 100 scale): 0 | Pigweed, Palmer plant response rating (0-100) [8, 29]: 30 | Kochia plant response rating ([9]; 16 g ai/ha, 0 to 100 scale): 0 | Kochia plant response rating (0-100) [9, 29]: 50 | Foxtail, Green plant response rating ([10]; 16 g ai/ha, 0 to 100 scale): 0 | Foxtail, Green plant response rating (0-100) [10, 29]: 30 | Wheat plant response rating ([11]; 16 g ai/ha, 0 to 100 scale): 0 | Wheat plant response rating (0-100) [11, 29]: 20 | Corn plant response rating ([12]; 16 g ai/ha, 0 to 100 scale): 0 | Corn plant response rating (0-100) [12, 29]: 0 | Blackgrass plant response rating ([13]; 16 g ai/ha, 0 to 100 scale): 0 | Blackgrass plant response rating (0-100) [13, 29]: 0 | Oat, Wild plant response rating ([14]; 16 g ai/ha, 0 to 100 scale): 0 | Oat, Wild plant response rating (0-100) [14, 29]: 0 | Barnyardgrass plant response rating ([15]; 16 g ai/ha, 0 to 100 scale): 0 | Barnyardgrass plant response rating (0-100) [15, 29]: 20 | Ragweed plant response rating (0-100) [16, 30]: 60 | Ragweed plant response rating (0 to 100 scale) [16, 31]: 40 | Soybean plant response rating (0-100) [17, 30]: 60 | Soybean plant response rating (0 to 100 scale) [17, 31]: 20 | Ryegrass, Italian plant response rating (0-100) [18, 30]: 70 | Ryegrass, Italian plant response rating (0 to 100 scale) [18, 31]: 50 | Pigweed, Palmer plant response rating (0-100) [19, 30]: 90 | Pigweed, Palmer plant response rating (0 to 100 scale) [19, 31]: 80 | Kochia plant response rating (0-100) [20, 30]: 90 | Kochia plant response rating (0 to 100 scale) [20, 31]: 30 | Foxtail, Green plant response rating (0-100) [21, 30]: 90 | Foxtail, Green plant response rating (0 to 100 scale) [21, 31]: 40 | Wheat plant response rating (0-100) [22, 30]: 90 | Wheat plant response rating (0 to 100 scale) [22, 31]: 30 | Corn plant response rating (0-100) [23, 30]: 90 | Corn plant response rating (0 to 100 scale) [23, 31]: 0 | Blackgrass plant response rating (0-100) [24, 30]: 70 | Blackgrass plant response rating (0 to 100 scale) [24, 31]: 0 | Oat, Wild plant response rating (0-100) [25, 30]: 30 | Oat, Wild plant response rating (0 to 100 scale) [25, 31]: 0 | Galium plant response rating (0-100) [26, 30]: 70 | Galium plant response rating (0 to 100 scale) [26, 31]: 30 | Barnyardgrass plant response rating (0-100) [27, 30]: 100 | Barnyardgrass plant response rating (0 to 100 scale) [27, 31]: 50 | Horseweed plant response rating (0-100) [28, 30]: 30 | Horseweed plant response rating (0 to 100 scale) [28, 31]: 0
